From paper PMC7645381, “Development and application of a high-throughput screening assay for identification of small molecule inhibitors of the P. falciparum reticulocyte binding-like homologue 5 protein” (International Journal for Parasitology: Drugs and Drug …, 2020) come the findings set out here.

Where a name gives a salt, the structure may show the parent alone. Where only a bound is given, the exact number is not on record here.

What all share (experiment): biochemical
In assay [1] the target is T1, P. falciparum Rh5 (Rh5 – basigin interaction) (Plasmodium falciparum, UniProt Q8IFM5). On the set-up: AlphaScreen of Rh5 - His-tagged basigin interaction with anti-Rh5 mAb beads; inhibition of luminescence signal. As to conditions: primary pilot screen, single point; for % Inhibition Pilot: 20 µM, inhibitor. How it is done:
Using the Combi-multidrop, 5 μL of Rh5 stock solution (200 nM prepared in assay buffer) was added to columns 1–24 of the 384-well assay plate (Greiner 384-well white, low binding plate, #784904, Bioone). The PerkinElmer Janus automated dispensing system was then employed to transfer, via the pin-tool, 2 × 100 nL of the compound stock DMSO solution from the compound master plate to the assay plate. The plate was sealed and incubated for 30 min at room temperature. Using a Combi-multidrop, 5 μL of hexa-histidine tagged basigin stock solution (80 nM prepared in assay buffer) was then added to columns 1–23 and 5 μL assay buffer to column 24 of the 384-well assay plate. The plate was sealed again and incubated for 30 min at room temperature. A solution of AlphaScreen donor and acceptor beads (20 μg/mL prepared in assay buffer) plus anti-Rh5 mAb solution (2 μg/mL prepared in assay buffer) was prepared in assay buffer under subdued lighting. Using the Combi-multidrop, 10 μL of this solution was added to every well of the assay plate under subdued lighting. The plate was sealed with foil (plate max) and incubated at room temperature for 1 h. The assay plate was then analysed on the PerkinElmer Envision 2103 Multilabel Plate Reader (Ex 680, Em 520–620 nm). The optimised Rh5 AlphaScreen assay was then validated for HT screening purposes by conducting a pilot screen using known drug library (from Prestwick, Tocris and LOPAC) and the MMV Malaria Box, comprising 3708 and 400 compounds (Fig. 1), respectively. Historically, PPIs are notoriously difficult to target with small molecules. To enhance the likelihood of identifying an inhibitor of the Rh5 - basigin interaction the primary screen was conducted at a compound concentration of 20 μM. A 20 μM screening concentration is considered high, when compared to the commonly used primary screen concentrations of approximately 1–10 μM. To follow-up on hit compounds from the pilot validation screen, we next wanted to confirm the activity of the primary hits. To do this, a two-phase hit confirmation and counterscreen process was undertaken (Fig. 1). In the first phase, the 231 primary hits from both libraries were evaluated in the Rh5 AlphaScreen assay and counterscreen assay. Both assays were undertaken at 10 μM in duplicate. The counterscreen assay was conducted using AlphaScreen TruHits. […] The 45 secondary hits can be viewed in the top left quadrant of Fig. S8. Of the 45 hits, 13 compounds originated from the Malaria Box and 32 compounds from the known drug library.

Assay [2] has as its target T1, P. falciparum Rh5 (Rh5 – basigin interaction). On the set-up: AlphaScreen of Rh5 - His-tagged basigin interaction with anti-Rh5 mAb beads; inhibition of luminescence signal. To be noted: confirmation screen, duplicate; for % Inhibition Confirmation: 10 µM, inhibitor. The protocol:
Using the Combi-multidrop, 5 μL of Rh5 stock solution (200 nM prepared in assay buffer) was added to columns 1–24 of the 384-well assay plate (Greiner 384-well white, low binding plate, #784904, Bioone). The PerkinElmer Janus automated dispensing system was then employed to transfer, via the pin-tool, 2 × 100 nL of the compound stock DMSO solution from the compound master plate to the assay plate. The plate was sealed and incubated for 30 min at room temperature. Using a Combi-multidrop, 5 μL of hexa-histidine tagged basigin stock solution (80 nM prepared in assay buffer) was then added to columns 1–23 and 5 μL assay buffer to column 24 of the 384-well assay plate. The plate was sealed again and incubated for 30 min at room temperature. A solution of AlphaScreen donor and acceptor beads (20 μg/mL prepared in assay buffer) plus anti-Rh5 mAb solution (2 μg/mL prepared in assay buffer) was prepared in assay buffer under subdued lighting. Using the Combi-multidrop, 10 μL of this solution was added to every well of the assay plate under subdued lighting. The plate was sealed with foil (plate max) and incubated at room temperature for 1 h. The assay plate was then analysed on the PerkinElmer Envision 2103 Multilabel Plate Reader (Ex 680, Em 520–620 nm). […] Historically, PPIs are notoriously difficult to target with small molecules. To enhance the likelihood of identifying an inhibitor of the Rh5 - basigin interaction the primary screen was conducted at a compound concentration of 20 μM. A 20 μM screening concentration is considered high, when compared to the commonly used primary screen concentrations of approximately 1–10 μM. […] To do this, a two-phase hit confirmation and counterscreen process was undertaken (Fig. 1). […] Both assays were undertaken at 10 μM in duplicate. The counterscreen assay was conducted using AlphaScreen TruHits.

The target is the same in assay [3]. It is filed as binding. To be noted: for Rh5 inhibitory activity in the AlphaScreen assay: highest concentration tested 50 μM. On the technique in general: Bead proximity is the source of the signal in Alpha formats.

T1 sequence (Q8IFM5 24-526): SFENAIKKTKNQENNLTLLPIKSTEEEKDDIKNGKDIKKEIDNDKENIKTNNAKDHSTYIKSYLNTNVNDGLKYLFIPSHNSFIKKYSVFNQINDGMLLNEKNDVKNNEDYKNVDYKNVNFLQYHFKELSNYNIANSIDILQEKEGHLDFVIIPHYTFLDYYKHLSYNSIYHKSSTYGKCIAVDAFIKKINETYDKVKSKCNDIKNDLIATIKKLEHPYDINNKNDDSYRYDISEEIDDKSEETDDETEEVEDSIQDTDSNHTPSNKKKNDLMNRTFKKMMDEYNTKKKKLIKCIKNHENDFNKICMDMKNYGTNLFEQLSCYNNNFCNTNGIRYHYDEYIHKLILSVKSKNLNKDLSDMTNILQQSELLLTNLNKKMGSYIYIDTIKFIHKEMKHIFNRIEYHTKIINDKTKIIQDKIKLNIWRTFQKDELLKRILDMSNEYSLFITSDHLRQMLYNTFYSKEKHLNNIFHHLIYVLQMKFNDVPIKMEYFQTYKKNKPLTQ

In assay [1] (Batch Reference=01), `NC(Cc1cc(O)c(O)cc1O)C(=O)O` (racemic) [WEHI-1215200, 6-Hydroxy-DL-DOPA] had an inhibition at 20 µM of 69.7%. The compound further registered an inhibition at 10 µM in assay [2] (Batch Reference=01) of 80.7%. The compound `CC(=O)N1CCN(c2ccc(OC[C@@H]3CO[C@@](Cn4ccnc4)(c4ccc(Cl)cc4Cl)O3)cc2)CC1` (racemic) [WEHI-1215227, Ketoconazole] gave an inhibition at 20 µM in assay [1] (Batch Reference=02) of 58.3%.

As for `CCOC(=O)c1cc(=O)c2cccc(NC(=O)c3ccc(OCc4ccccc4)cc3)c2o1` [Compound 11, Ethyl 8-(4-(benzyloxy)benzamido)-4-oxo-4H-chromene-2-carboxylate], the IC50 in assay [3] is > 50 µM. On the same count and under the same terms, the same measure for `CCOC(=O)c1cc(=O)c2cccc(NC(=O)c3ccc(OCCc4ccccc4)cc3)c2o1` [Compound 12, Ethyl 4-oxo-8-(4-phenethoxybenzamido)-4H-chromene-2-carboxylate]: > 50 µM. With `CCOC(=O)c1cc(=O)c2cccc(NC(=O)c3ccc(OCCCCc4ccccc4)cc3)c2o1` [Compound 14, Ethyl 4-oxo-8-(4-(4-phenylbutoxy)benzamido)-4H-chromene-2-carboxylate], in assay [3], the IC50 was > 50 µM.

Turning to `O=C(Nc1cccc2c(=O)cc(C(=O)O)oc12)c1ccc(OCc2ccccc2)cc1` [Compound 15, 8-(4-(Benzyloxy)benzamido)-4-oxo-4H-chromene-2-carboxylic acid], in assay [3], the IC50 is > 50 µM and the “Rh5 inhibitory activity in the AlphaScreen assay” value (from here on “Rh5 inhibitory activity”) is “No activity”. Consider `CCOC(=O)c1cc(=O)c2cccc(NC(=O)c3ccc(OC)cc3)c2o1` [Compound 20, Ethyl 8-(4-methoxybenzamido)-4-oxo-4H-chromene-2-carboxylate], for which the IC50 in assay [3] was > 50 µM.

Consider `CN(C)C(=O)CCSC(SCCC(=O)O)c1cccc(/C=C/c2ccc3ccc(Cl)cc3n2)c1` (stereo not shown) [MK 571, reference compound], for which the “Rh5 inhibitory activity” value in assay [3] was “did not show Rh5 inhibitory activity”. Regarding `Br.CN1CCc2cc(O)cc3c2[C@H]1Cc1ccc(O)c(O)c1-3` [R(-)-2,10,11-trihydroxyaporphine, reference compound], in assay [3], the “Rh5 inhibitory activity” value is reported as “not active”. On to `CN1CCc2cccc3c2[C@H]1Cc1ccc(O)c(O)c1-3` [R(-)-apomorphine, reference compound], for which the “Rh5 inhibitory activity” value in assay [3] is “not active”.

Turning to `CCCN1CCc2cccc3c2[C@H]1Cc1ccc(O)c(O)c1-3` [R(-)-propylnorapomorphine, reference compound], in assay [3], the “Rh5 inhibitory activity” value is “not active”. Turning to `COC(=O)C1=C(C)NC(C)=C(C(=O)OC)C1c1ccccc1[N+](=O)[O-]` [WEHI-0104145, Nifedipine], the inhibition at 20 µM in assay [1] (Batch Reference=02) is 55.3%; in assay [1] (Batch Reference=03) it was 57.3%. Besides, the inhibition at 10 µM in assay [2] (Batch Reference=02) was determined as 81.1%; in assay [2] (Batch Reference=03), 75.7%. As to `CN1CCc2cccc3c2[C@H]1Cc1ccc(O)c(O)c1-3` [WEHI-1214737, Apomorphine hydrochloride hemihydrate], the “% Inhibition Pilot” value in assay [1] (Batch Reference=01) is 62.755%. Further, the “% Inhibition Confirmation” value in assay [2] (Batch Reference=01) was 72.2885%. In turn, `CCCN1CCc2cccc3c2[C@H]1Cc1ccc(O)c(O)c1-3` [WEHI-1215034, R(-)-Propylnorapomorphine hydrochloride] yielded an inhibition at 20 µM in assay [1] (Batch Reference=01) of 83%. This compound came in with an inhibition at 10 µM in assay [2] (Batch Reference=01) of 84.9%.

On to `CN1CCc2cc(O)cc3c2[C@H]1Cc1ccc(O)c(O)c1-3` [WEHI-1215043, R(-)-2,10,11-Trihydroxyaporphine hybrobromide], for which 20 µM produced 62.6% inhibition in assay [1] (Batch Reference=01). This compound also displayed an inhibition at 10 µM in assay [2] (Batch Reference=01) of 84.7%. The matching figures for `CCCN1CCc2cc(O)cc3c2[C@H]1Cc1ccc(O)c(O)c1-3` [WEHI-1215052, R(-)-2,10,11-Trihydroxy-N-propylnoraporphine hydrobromide]: 69.8% and 87.2%. Turning to `CC#C[C@]1(O)CC[C@H]2[C@@H]3CCC4=CC(=O)CCC4=C3[C@@H](c3ccc(N(C)C)cc3)C[C@@]21C` [WEHI-1215337, Mifepristone], the inhibition at 20 µM in assay [1] (Batch Reference=01) amounted to 75.3%; in assay [1] (Batch Reference=03) it was 76.6%. For the same compound, the figures for the inhibition at 10 µM in assay [2] (Batch Reference=01) and in assay [2] (Batch Reference=03) were 91.7% and 96.5%, respectively. `C[n+]1cc2c3c(ccc2c2ccc4cc5c(cc4c21)OCO5)OCO3` [WEHI-1215580, Sanguinarine chloride] returned an inhibition at 20 µM in assay [1] (Batch Reference=01) of 70.3%. The compound also gave an inhibition at 10 µM in assay [2] (Batch Reference=01) of 99%. The matching figures for `O=C(O)Cc1cccc(OCCCN(Cc2cccc(C(F)(F)F)c2Cl)CC(c2ccccc2)c2ccccc2)c1` [WEHI-1216231, GW 3965 hydrochloride]: 57.8% and 51.1%.

`CN1CCc2cccc3c2[C@H]1Cc1ccc(O)c(O)c1-3` [WEHI-1216442, (R)-(-)-Apomorphine hydrochloride] returned an inhibition at 20 µM in assay [1] (Batch Reference=01) of 70.8%. The compound also returned an inhibition at 10 µM in assay [2] (Batch Reference=01) of 76.5%. The matching figures for `O=C1C=CC(=O)c2c1ccc1c2ccc2ccccc21` [WEHI-1216729, Chrysene-1,4-quinone]: 56.6% and 71%. The matching figures for `CC[N+](C)(CC)CCC[n+]1c(-c2ccccc2)c2cc(N)ccc2c2ccc(N)cc21` [WEHI-1216760, Propidium iodide]: 55.7% and 77%.

In the case of `NCCNCCNCCNCCN` [WEHI-1217021, Tetraethylenepentamine pentahydrochloride], at 20 µM the inhibition in assay [1] (Batch Reference=01) was 96.2%. In assay [2] (Batch Reference=01), this compound showed an inhibition at 10 µM of 96.9%. Consider `CN1CCc2cccc3c2[C@H]1Cc1ccc(O)c(O)c1-3` [WEHI-1217165, R(-) Apomorphine hydrochloride hemihydrate], for which, in assay [1] (Batch Reference=01), the “% Inhibition Pilot” value is recorded as 61.89%. Further, the “% Inhibition Confirmation” value in assay [2] (Batch Reference=01) came to 62.575%. As to `COCCCOc1ccnc(C[S+]([O-])c2nc3ccccc3[nH]2)c1C` (stereo not shown) [rabeprazole, reference compound], the “Rh5 inhibitory activity” value in assay [3] is given as “not active”.

`COCCCOc1ccnc(C[S+]([O-])c2nc3ccccc3[nH]2)c1C` (stereo not shown) [rabeprazole]: in assay [1] (Batch Reference=01), the inhibition at 20 µM turned out to be 59.6%. The same compound displayed an inhibition at 10 µM in assay [2] (Batch Reference=01) of 68%.

As usually defined, the inhibition is the change of the read-out against control, counted positive when it falls. As a reminder, the IC50 is the point on the concentration scale where inhibition reaches its midpoint. Low values mean greater potency, high ones weaker potency.
